Source: patent publication US7528135B2, “Pyridine derivatives as H3 antagonists” (Hoffmann-La Roche Inc., priority 2004, dated 2009)

Target: T1, histamine 3 receptor (H3R) (Homo sapiens, UniProt Q9Y5N1)
T1 construct: expressed in transfected cells; host or cells: CHO cells (HR3-CHO cell line), membrane preparation
Experiment: Binding assay with 3H-(R)α-methylhistamine (competition binding, human HR3-CHO membranes)
Conditions: competition against 3H(R)α-Methylhistamine (1 nM = Kd), membrane of the human HR3-CHO cell line; Ki calculated from IC50 by Cheng-Prusoff
Procedure: Binding Assay with ^3H-(R)α-methylhistamine
Saturation binding experiments were performed using HR3-CHO membranes prepared as described in Takahashi, K, Tokita, S., Kotani, H. (2003) J. Pharmacol. Exp. Therapeutics 307, 213-218.
An appropriate amount of membrane (60 to 80 μg protein/well) was incubated with increasing concentrations of ^3H(R)α-Methylhistamine di-hydrochloride (0.10 to 10 nM). Non specific binding was determined using a 200 fold excess of cold (R)α-Methylhistamine dihydrobromide (500 nM final concentration). The incubation was carried out at room temperature (in deep-well plates shaking for three hours). The final volume in each well was 250 μl. The incubation was followed by rapid filtration on GF/B filters (pre-soaked with 100 μl of 0.5% PEI in Tris 50 mM shaking at 200 rpm for two hours). The filtration was made using a cell-harvester and the filter plates were then washed five times with ice cold washing buffer containing 0.5 M NaCl. After harvesting, the plates were dried at 55° C. for 60 min, then we added scintillation fluid (Microscint 40, 40 microl in each well) and the amount of radioactivity on the filter was determined in Packard top-counter after shaking the plates for two hours at 200 rpm at room temperature.
Binding Buffer: 50 mM Tris-HCl pH 7.4 and 5 mM MgCl2x6H2O pH 7.4. Washing Buffer: 50 mM Tris-HCl pH 7.4 and 5 mM MgCl2x6H2O and 0.5 M NaCl pH 7.4.
Indirect measurement of affinity of H3R inverse agonists: twelve increasing concentrations (ranging from 10 μM to 0.3 nM) of the selected compounds were always tested in competition binding experiments using membrane of the human HR3-CHO cell line. An appropriate amount of protein, e.g. approximately 500 cpm binding of RAMH at Kd, were incubated for 1 hour at room temperature in 250 μl final volume in 96-well plates in presence of ^3H(R)α-Methylhistamine (1 nM final concentration=Kd). […]
All compounds were tested at a single concentration in duplicates. […] Ki's were calculated from IC50 based on Cheng-Prusoff equation (Cheng, Y, Prusoff, W H (1973) Biochem Pharmacol 22, 3099-3108).

T1 sequence (Q9Y5N1 whole entry): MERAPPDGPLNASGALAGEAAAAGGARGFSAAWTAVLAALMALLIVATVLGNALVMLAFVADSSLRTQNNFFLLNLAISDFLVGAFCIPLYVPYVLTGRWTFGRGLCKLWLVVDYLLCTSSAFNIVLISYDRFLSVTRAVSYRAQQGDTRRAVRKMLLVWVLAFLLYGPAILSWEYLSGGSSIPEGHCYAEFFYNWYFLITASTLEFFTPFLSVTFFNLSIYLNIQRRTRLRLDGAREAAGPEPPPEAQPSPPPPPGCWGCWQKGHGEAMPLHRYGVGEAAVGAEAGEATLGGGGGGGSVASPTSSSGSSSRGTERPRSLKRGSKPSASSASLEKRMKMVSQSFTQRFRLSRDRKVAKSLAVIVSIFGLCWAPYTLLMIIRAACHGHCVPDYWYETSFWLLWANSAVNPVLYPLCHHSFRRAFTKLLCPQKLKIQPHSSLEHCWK

`CCN1CCN(c2ccc(NC(=O)NCc3ccccc3)cn2)CC1` [Example 3, 1-benzyl-3-[6-(4-ethyl-piperazin-1-yl)-pyridin-3-yl]-urea] and `COc1ccc(CC(=O)Nc2ccc(N3CCN(C4CCCC4)CC3)nc2)cc1OC` [Example 53, N-[6-(4-cyclopentyl-piperazin-1-yl)-pyridin-3-yl]-2-(3,4-dimethoxy-phenyl)-acetamide] are within 1.5-fold of each other in Ki: 39 nM for the first, 40 nM for the second.

Compound `CN(C)S(=O)(=O)Nc1ccc(N2CCN(C3CCCC3)CC2)nc1` [Example 34, N-[6-(4-cyclopentyl-piperazin-1-yl)-pyridin-3-yl]-diemethylaminosulfonamide] has a Ki of 81 nM.
